{"source": "paper PMC5374673", "about": "“Activity of the novel BCR kinase inhibitor IQS019 in preclinical models of B-cell non-Hodgkin lymphoma” (Journal of Hematology & Oncology, 2017)", "format_in_all_cases": "biochemical", "key": {"Btk": {"target": "Btk (Homo sapiens, UniProt Q06187)", "sequence (Q06187 2-659)": "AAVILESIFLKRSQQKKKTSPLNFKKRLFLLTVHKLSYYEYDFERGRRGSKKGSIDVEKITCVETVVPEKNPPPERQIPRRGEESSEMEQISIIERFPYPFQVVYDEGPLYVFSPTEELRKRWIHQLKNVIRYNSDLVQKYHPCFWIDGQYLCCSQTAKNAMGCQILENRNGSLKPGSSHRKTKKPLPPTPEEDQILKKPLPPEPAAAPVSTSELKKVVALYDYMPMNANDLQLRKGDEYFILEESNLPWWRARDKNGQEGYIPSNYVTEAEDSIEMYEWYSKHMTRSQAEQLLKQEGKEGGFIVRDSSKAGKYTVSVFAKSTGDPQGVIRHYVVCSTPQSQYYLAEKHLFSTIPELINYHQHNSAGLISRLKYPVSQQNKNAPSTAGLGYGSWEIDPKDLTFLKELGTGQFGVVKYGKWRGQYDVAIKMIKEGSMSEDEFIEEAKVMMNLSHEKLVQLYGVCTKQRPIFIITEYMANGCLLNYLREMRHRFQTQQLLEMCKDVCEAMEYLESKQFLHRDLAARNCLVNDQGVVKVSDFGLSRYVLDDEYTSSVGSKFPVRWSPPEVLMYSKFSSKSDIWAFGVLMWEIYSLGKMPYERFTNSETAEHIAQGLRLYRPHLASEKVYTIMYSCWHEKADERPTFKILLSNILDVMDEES", "experiment": "radiometric kinase assay and 400-kinase panel (ProQinase); also Ba/F3 cells expressing the kinase domain"}, "Syk": {"target": "Syk (Homo sapiens, UniProt P43405)", "experiment": "radiometric kinase assay and 400-kinase panel (ProQinase); also Ba/F3 cells expressing the kinase domain"}, "Bmx": {"target": "T1, Bmx (Homo sapiens, UniProt P51813)", "T1 sequence (P51813 1-675)": "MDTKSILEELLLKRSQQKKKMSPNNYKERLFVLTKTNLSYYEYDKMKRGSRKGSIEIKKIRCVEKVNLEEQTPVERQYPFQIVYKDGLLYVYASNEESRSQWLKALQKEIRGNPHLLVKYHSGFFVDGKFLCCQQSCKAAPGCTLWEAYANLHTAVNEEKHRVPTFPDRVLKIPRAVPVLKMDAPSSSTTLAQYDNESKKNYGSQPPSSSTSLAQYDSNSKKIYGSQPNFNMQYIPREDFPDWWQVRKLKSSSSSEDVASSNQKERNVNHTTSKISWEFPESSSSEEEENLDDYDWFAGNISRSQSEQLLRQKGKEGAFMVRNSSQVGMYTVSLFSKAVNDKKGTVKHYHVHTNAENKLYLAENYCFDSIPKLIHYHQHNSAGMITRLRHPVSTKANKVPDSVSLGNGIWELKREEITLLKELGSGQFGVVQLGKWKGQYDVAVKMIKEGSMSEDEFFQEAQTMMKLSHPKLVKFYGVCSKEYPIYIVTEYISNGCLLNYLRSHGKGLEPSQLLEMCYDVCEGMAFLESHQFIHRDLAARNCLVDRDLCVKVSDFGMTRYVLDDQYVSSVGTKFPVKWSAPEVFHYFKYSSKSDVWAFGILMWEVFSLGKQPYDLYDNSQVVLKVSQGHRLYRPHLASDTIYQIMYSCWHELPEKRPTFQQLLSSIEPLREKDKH", "experiment": "400-kinase panel, residual activity at […]"}, "Lyn": {"target": "Lyn (Homo sapiens, UniProt P07948)", "sequence (P07948 2-512)": "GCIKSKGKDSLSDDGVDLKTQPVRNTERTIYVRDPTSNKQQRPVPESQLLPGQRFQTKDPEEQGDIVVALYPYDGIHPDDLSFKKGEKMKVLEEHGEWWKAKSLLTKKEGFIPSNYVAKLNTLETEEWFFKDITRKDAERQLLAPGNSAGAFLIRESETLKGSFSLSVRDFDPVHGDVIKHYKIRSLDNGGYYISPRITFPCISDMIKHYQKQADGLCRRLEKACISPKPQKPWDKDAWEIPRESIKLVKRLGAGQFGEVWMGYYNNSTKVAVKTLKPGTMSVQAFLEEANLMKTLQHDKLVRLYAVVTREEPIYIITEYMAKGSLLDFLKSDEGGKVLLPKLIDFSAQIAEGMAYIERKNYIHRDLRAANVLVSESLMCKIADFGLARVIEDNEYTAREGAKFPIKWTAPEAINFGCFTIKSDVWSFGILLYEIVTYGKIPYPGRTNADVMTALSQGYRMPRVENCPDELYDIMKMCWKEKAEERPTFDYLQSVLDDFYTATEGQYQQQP", "experiment": "radiometric kinase assay and 400-kinase panel (ProQinase); also Ba/F3 cells expressing the kinase domain"}}, "data": [{"smiles": "CN1CCN(c2ccc(Nc3nc(N)c4cc(-c5c(Cl)cccc5Cl)c(=O)n(C)c4n3)cc2)CC1", "note": "[compound 19, IQS019]", "values": [{"measurement": "IC50", "setting": "Btk", "result": 2100, "unit": "nM"}, {"measurement": "IC50", "setting": "Syk", "result": 1600, "unit": "nM"}, {"measurement": "400-kinase panel, residual activity at 0.1 and 10 μM", "setting": "Bmx", "result": "the member of the Tec family of non-receptor tyrosine kinases, Bmx"}, {"measurement": "IC50", "setting": "Lyn", "result": 150, "unit": "nM"}]}]}
